Test results as given in the supplement of paper PMC10307832.

How the values were obtained:
Experiment in all cases: relative viability (nuclei count vs DMSO), 5 days (fraction); higher = more cells survive
NCI-H1792 = tested on: NCI-H1792
Method in brief: (§1)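 After 5 days of treatment, lung cancer cells in 1536-well plates were fixed and stained in a single step (final 0.05% Triton X-100, 1% formaldehyde, 1 ug/ml Hoechst) and their nuclei counted on 4× images. Treatment had been applied by pin tool the day after seeding as one drug alone or as a fixed anchor-drug dose with five library-drug doses (not always all listed) in √10 steps. Relative viability is the nuclei count of treated wells divided by that of vehicle wells, and values are medians of duplicate plates.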

NCI-H2347 = tested on: NCI-H2347
Method in brief: as §1

HCC-15 = tested on: HCC-15
Method in brief: as §1

NCI-H358 = tested on: NCI-H358
Method in brief: as §1

NCI-H1734 = tested on: NCI-H1734
Method in brief: as §1

NCI-H647 = tested on: NCI-H647
Method in brief: as §1

SW 1573 = tested on: SW 1573
Method in brief: as §1

NCI-H2228 = tested on: NCI-H2228
Method in brief: as §1

LXF-289 = tested on: LXF-289
Method in brief: as §1

PC-3 [JPC-3] = tested on: PC-3 [JPC-3]
Method in brief: as §1

HCC-78 = tested on: HCC-78
Method in brief: as §1

NCI-H2126 = tested on: NCI-H2126
Method in brief: as §1

NCI-H1915 = tested on: NCI-H1915
Method in brief: as §1

NCI-H1755 = tested on: NCI-H1755
Method in brief: as §1

SK-LU-1 = tested on: SK-LU-1
Method in brief: as §1

LC-2-ad = tested on: LC-2-ad
Method in brief: as §1

RERF-LC-KJ = tested on: RERF-LC-KJ
Method in brief: as §1

A-427 = tested on: A-427
Method in brief: as §1

HOP-62 = tested on: HOP-62
Method in brief: as §1

NCI-H1975 = tested on: NCI-H1975
Method in brief: as §1

Work on `COc1cc2nccc(Oc3ccc(NC(=O)Nc4cc(C)on4)c(Cl)c3)c2cc1OC` [Tivozanib] + C[C@]1(O)C[C@@H](c2nc(-c3ccc4ccc(-c5ccccc5)nc4c3)c3c(N)nccn32)C1 [Linsitinib] (partner 1 µM) yielded a relative viability (NCI-H1792; first compound 0.005 µM) of 0.535, a relative viability (NCI-H1792; first compound 0.01581 µM) of 0.581 and a relative viability (NCI-H1792; first compound 0.05 µM) of 0.534. For the same compound, the relative viability (NCI-H1792; first compound 0.1581 µM) was 0.698, the relative viability (NCI-H1792; first compound 0.5 µM) was 0.592 and the relative viability (NCI-H2347; first compound 0.005 µM) was 0.711. It also gave a relative viability (NCI-H2347; first compound 0.01581 µM) of 0.897, a relative viability (NCI-H2347; first compound 0.05 µM) of 0.966 and a relative viability (NCI-H2347; first compound 0.1581 µM) of 1.1. The relative viability (NCI-H2347; first compound 0.5 µM) was 0.92, the relative viability (HCC-15; first compound 0.005 µM) was 0.9 and the relative viability (HCC-15; first compound 0.01581 µM) was 0.878. For the same compound, the relative viability (HCC-15; first compound 0.05 µM) was 0.9, the relative viability (HCC-15; first compound 0.1581 µM) was 0.875 and the relative viability (HCC-15; first compound 0.5 µM) was 0.897. The relative viability (NCI-H358; first compound 0.005 µM) was 0.765, the relative viability (NCI-H358; first compound 0.01581 µM) was 0.849 and the relative viability (NCI-H358; first compound 0.05 µM) was 0.718. The relative viability (NCI-H358; first compound 0.1581 µM) was 0.695, the relative viability (NCI-H358; first compound 0.5 µM) was 0.782 and the relative viability (NCI-H1734; first compound 0.005 µM) was 0.847. It also gave a relative viability (NCI-H1734; first compound 0.01581 µM) of 0.795, a relative viability (NCI-H1734; first compound 0.05 µM) of 1.03 and a relative viability (NCI-H1734; first compound 0.1581 µM) of 0.674. For the same compound, the relative viability (NCI-H1734; first compound 0.5 µM) was 0.858, the relative viability (NCI-H647; first compound 0.005 µM) was 1.08 and the relative viability (NCI-H647; first compound 0.01581 µM) was 1.09. The relative viability (NCI-H647; first compound 0.05 µM) was 1.26, the relative viability (NCI-H647; first compound 0.1581 µM) was 1.21 and the relative viability (NCI-H647; first compound 0.5 µM) was 1.18. For the same compound, the relative viability (SW 1573; first compound 0.005 µM) was 0.896, the relative viability (SW 1573; first compound 0.01581 µM) was 0.826 and the relative viability (SW 1573; first compound 0.05 µM) was 0.921. The relative viability (SW 1573; first compound 0.1581 µM) was 0.819, the relative viability (SW 1573; first compound 0.5 µM) was 0.86 and the relative viability (NCI-H2228; first compound 0.005 µM) was 0.504. For the same compound, the relative viability (NCI-H2228; first compound 0.01581 µM) was 0.683, the relative viability (NCI-H2228; first compound 0.05 µM) was 0.697 and the relative viability (NCI-H2228; first compound 0.1581 µM) was 0.569. It also gave a relative viability (NCI-H2228; first compound 0.5 µM) of 0.868, a relative viability (LXF-289; first compound 0.005 µM) of 0.974 and a relative viability (LXF-289; first compound 0.01581 µM) of 0.929. The relative viability (LXF-289; first compound 0.05 µM) was 0.945, the relative viability (LXF-289; first compound 0.1581 µM) was 1.02 and the relative viability (LXF-289; first compound 0.5 µM) was 0.983. For the same compound, the relative viability (PC-3 [JPC-3]; first compound 0.005 µM) was 0.903, the relative viability (PC-3 [JPC-3]; first compound 0.01581 µM) was 0.921 and the relative viability (PC-3 [JPC-3]; first compound 0.05 µM) was 1. The relative viability (PC-3 [JPC-3]; first compound 0.1581 µM) was 1.01, the relative viability (PC-3 [JPC-3]; first compound 0.5 µM) was 0.915 and the relative viability (HCC-78; first compound 0.005 µM) was 0.53. For the same compound, the relative viability (HCC-78; first compound 0.01581 µM) was 0.492, the relative viability (HCC-78; first compound 0.05 µM) was 0.437 and the relative viability (HCC-78; first compound 0.1581 µM) was 0.415. The relative viability (HCC-78; first compound 0.5 µM) was 0.451, the relative viability (NCI-H2126; first compound 0.005 µM) was 0.651 and the relative viability (NCI-H2126; first compound 0.01581 µM) was 0.697. The relative viability (NCI-H2126; first compound 0.05 µM) was 0.734, the relative viability (NCI-H2126; first compound 0.1581 µM) was 0.52 and the relative viability (NCI-H2126; first compound 0.5 µM) was 0.747. For the same compound, the relative viability (NCI-H1915; first compound 0.005 µM) was 1.08, the relative viability (NCI-H1915; first compound 0.01581 µM) was 1.14 and the relative viability (NCI-H1915; first compound 0.05 µM) was 1.12. It also gave a relative viability (NCI-H1915; first compound 0.1581 µM) of 1.07, a relative viability (NCI-H1915; first compound 0.5 µM) of 1.05 and a relative viability (NCI-H1755; first compound 0.005 µM) of 0.968. For the same compound, the relative viability (NCI-H1755; first compound 0.01581 µM) was 0.918, the relative viability (NCI-H1755; first compound 0.05 µM) was 1.05 and the relative viability (NCI-H1755; first compound 0.1581 µM) was 1.02. It also gave a relative viability (NCI-H1755; first compound 0.5 µM) of 0.96, a relative viability (SK-LU-1; first compound 0.005 µM) of 0.979 and a relative viability (SK-LU-1; first compound 0.01581 µM) of 1.08. The relative viability (SK-LU-1; first compound 0.05 µM) was 1.34, the relative viability (SK-LU-1; first compound 0.1581 µM) was 0.813 and the relative viability (SK-LU-1; first compound 0.5 µM) was 0.938. It also gave a relative viability (LC-2-ad; first compound 0.005 µM) of 0.86, a relative viability (LC-2-ad; first compound 0.01581 µM) of 0.791 and a relative viability (LC-2-ad; first compound 0.05 µM) of 0.73. For the same compound, the relative viability (LC-2-ad; first compound 0.1581 µM) was 0.526, the relative viability (LC-2-ad; first compound 0.5 µM) was 0.616 and the relative viability (RERF-LC-KJ; first compound 0.005 µM) was 0.828. The relative viability (RERF-LC-KJ; first compound 0.01581 µM) was 0.855, the relative viability (RERF-LC-KJ; first compound 0.05 µM) was 0.901 and the relative viability (RERF-LC-KJ; first compound 0.1581 µM) was 0.92. The relative viability (RERF-LC-KJ; first compound 0.5 µM) was 0.88, the relative viability (A-427; first compound 0.005 µM) was 1.09 and the relative viability (A-427; first compound 0.01581 µM) was 1.1. It also gave a relative viability (A-427; first compound 0.05 µM) of 1.23, a relative viability (A-427; first compound 0.1581 µM) of 0.987 and a relative viability (A-427; first compound 0.5 µM) of 1.07. It also gave a relative viability (HOP-62; first compound 0.005 µM) of 0.87, a relative viability (HOP-62; first compound 0.01581 µM) of 0.929 and a relative viability (HOP-62; first compound 0.05 µM) of 1.16. For the same compound, the relative viability (HOP-62; first compound 0.1581 µM) was 0.932, the relative viability (HOP-62; first compound 0.5 µM) was 0.988 and the relative viability (NCI-H1975; first compound 0.005 µM) was 0.976. For the same compound, the relative viability (NCI-H1975; first compound 0.01581 µM) was 0.893, the relative viability (NCI-H1975; first compound 0.05 µM) was 0.956 and the relative viability (NCI-H1975; first compound 0.1581 µM) was 0.784. For the same compound, the relative viability (NCI-H1975; first compound 0.5 µM) was 0.916.
